The text below walks through data of patent publication US8507535B2 (Hoffmann-La Roche Inc., priority 2010, dated 2013).

As usually defined, the Ki is the equilibrium dissociation constant of an inhibitor or competing ligand from its target.

For experiment [1] the following is noted: phase II trial, cited from earlier work.
Another experiment concerns the target human NK3 receptor (Homo sapiens (Human), UniProt P29371). Kind of experiment: [3H]SR142801 competition binding assay. To be noted: membranes from HEK293 cells transiently expressing recombinant human NK3 receptor; [3H]SR142801 radioligand; read-out: Ki (uM) hNK3. How it is done:
[^3H]SR142801 Competition Binding Assay
hNK3 receptor binding experiment were performed using [^3H]SR142801 (Catalog No. TRK1035, specific activity: 74.0 Ci/mmol, Amersham, GE Healthcare UK limited, Buckinghamshire, UK) and membrane isolated from HEK293 cells transiently expressing recombinant human NK3 receptor. After thawing, the membrane homogenates were centrifuged at 48,000×g for 10 min at 4° C., the pellets were resuspended in the 50 mM Tris-HCl, 4 mM MnCl2, 1 μM phosphoramidon, 0.1% BSA binding buffer at pH 7.4 to a final assay concentration of 5 μg protein/well. For inhibition experiments, membranes were incubated with [^3H]SR142801 at a concentration equal to KD value of radioligand and 10 concentrations of the inhibitory compound (0.0003-10 μM) (in a total reaction volume of 500 μl) for 75 min at room temperature (RT). At the end of the incubation, membranes were filtered onto unitfilter (96-well white microplate with bonded GF/C filter preincubated 1 h in 0.3% PEI+0.3% BSA, Packard BioScience, Meriden, Conn.) with a Filtermate 196 harvester (Packard BioScience) and washed 4 times with ice-cold 50 mM Tris-HCl, pH 7.4 buffer. Nonspecific binding was measured in the presence of 10 μM SB222200 for both radioligands. The radioactivity on the filter was counted (5 min) on a Packard Top-count microplate scintillation counter with quenching correction after addition of 45 μl of microscint 40 (Can berra Packard S. A., Zurich, Switzerland) and shaking for 1 h. Inhibition curves were fitted according to the Hill equation: y=100/(1+(x/IC50)^nH), where nH=slope factor using Excel-fit 4 software (Microsoft). IC50 values were derived from the inhibition curve and the affinity constant (Ki) values were calculated using the Cheng-Prussoff equation Ki=IC50/(1+[L]/KD) where [L] is the concentration of radioligand and KD is its dissociation constant at the receptor, derived from the saturation isotherm. All experiments were performed in duplicate and the mean±standard error (SEM) of the individual Ki values was calculated.

Chain of human NK3 receptor (P29371 whole entry): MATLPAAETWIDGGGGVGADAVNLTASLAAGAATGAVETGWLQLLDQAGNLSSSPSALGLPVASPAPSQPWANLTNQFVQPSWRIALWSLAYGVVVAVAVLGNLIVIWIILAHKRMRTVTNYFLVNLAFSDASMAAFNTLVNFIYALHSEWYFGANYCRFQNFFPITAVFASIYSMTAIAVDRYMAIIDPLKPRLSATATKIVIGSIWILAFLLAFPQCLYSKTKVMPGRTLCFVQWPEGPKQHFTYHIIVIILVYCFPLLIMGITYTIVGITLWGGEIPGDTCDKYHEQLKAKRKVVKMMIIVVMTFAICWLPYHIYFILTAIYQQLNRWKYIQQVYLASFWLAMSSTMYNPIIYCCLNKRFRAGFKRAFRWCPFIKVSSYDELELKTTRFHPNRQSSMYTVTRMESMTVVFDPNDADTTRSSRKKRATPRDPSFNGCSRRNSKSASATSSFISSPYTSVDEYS

For `CC(=O)N(C)C1(c2ccccc2)CCN(CCC[C@]2(c3ccc(Cl)c(Cl)c3)CCCN(C(=O)c3ccccc3)C2)CC1` [SR 142,801, Osanetant], the “activity on positive symptoms of schizophrenia” value in experiment [1] (altered behaviour, delusion, hallucinations, extreme emotions, excited motor activity, incoherent speech) is listed as “active on positive symptoms of schizophrenia”. Besides, the “activity on negative symptoms of schizophrenia” value in experiment [1] (depression, anhedonia, social isolation, memory and attention deficits) was “inactive in the treatment of negative symptoms”.

As to `C[C@]1(COc2ccc(Cl)cn2)CN(C(=O)c2ccc(-n3cccn3)nc2)C[C@@H]1c1ccc(Cl)cc1` (racemic) [Example 6, [(3RS,4RS)-4-(4-Chloro-phenyl)-3-(5-chloro-pyridin-2-yloxymethyl)-3-methyl-pyrrolidin-1-yl]-(6-pyrazol-1-yl-pyridin-3-yl)-methanone], the Ki on human NK3 receptor amounted to 0.0352 µM.

With `C[C@]1(COc2ccc(Cl)cn2)CN(C(=O)c2ccc(C#N)cc2)C[C@@H]1c1ccc(Cl)cc1` (racemic) [Example 8, 4-[(3RS,4RS)-4-(4-Chloro-phenyl)-3-(5-chloro-pyridin-2-yloxymethyl)-3-methyl-pyrrolidine-1-carbonyl]-benzonitrile], the Ki at human NK3 receptor is 0.0451 µM.
